PMC8138958 (ACS infectious diseases, 2021)
Converted amounts (≈) assume the structure as drawn. Like-named read-outs stand apart in the source and are kept apart here. Marks after values point to notes of the source that are not given here. Where a SMILES comes first, the peptide text is derived from it. Bridges are numbered along the chain shown (N, C = ends). [ ]: non-standard residue; d: D form. The star is where a group is joined. X2 = NC[C@@H](CC(=O)*)c1cccc(Cl)c1; Dab = NCC[C@H](N)C(=O)O; Dap = NC[C@H](N)C(=O)O

How the values were obtained:
K.pneumoniae IHMA520329 = format: cell-based, Klebsiella pneumoniae; conditions: compound alone; reduced susceptibility to polymyxins
[1] = Cynomolgus monkey; cited from earlier work
P.aeruginosa IHMA517175 = format: cell-based, Pseudomonas aeruginosa; conditions: compound alone; reduced susceptibility to polymyxins
K.pneumonia ATCC 13882 = format: cell-based, Klebsiella pneumoniae; conditions: compound alone; polymyxin-susceptible strain
E.coli ATCC 25922 = format: cell-based, Escherichia coli; conditions: compound alone; polymyxin-susceptible strain
A.baumannii BAA-747 = format: cell-based, Acinetobacter baumannii; conditions: compound alone; polymyxin-susceptible strain
E. coli IHMA558090 = format: cell-based, Escherichia coli; conditions: compound alone; reduced susceptibility to polymyxins
[2] = Determination of kidney drug levels; format: in vivo; conditions: mouse, single 17.2 mg/kg subcutaneous dose, period 4-16 hr
[3] = mouse; cited from earlier work
P.aeruginosa IHMA644636 = format: cell-based, Pseudomonas aeruginosa; conditions: compound alone; reduced susceptibility to polymyxins
K. pneumoniae IHMA580884 = format: cell-based, Klebsiella pneumoniae; conditions: compound alone; reduced susceptibility to polymyxins
A.baumannii IHMA 517303 = format: cell-based, Acinetobacter baumannii; conditions: compound alone; reduced susceptibility to polymyxins
E.coli IHMA940398 = format: cell-based, Escherichia coli; conditions: compound alone; reduced susceptibility to polymyxins
A.baumannii NCTC 13301 = format: cell-based, Acinetobacter baumannii; conditions: compound alone, polymyxin-susceptible strain
P.aeruginosa ATCC 27853 = format: cell-based, Pseudomonas aeruginosa; conditions: compound alone; polymyxin-susceptible strain
A.baumannii IHMA 851735 = experiment: MIC by broth microdilution; format: cell-based, Acinetobacter baumannii; conditions: compound alone; reduced susceptibility to polymyxins
A. baumannii NCTC13301 = experiment: Neutropenic mouse thigh efficacy model; format: in vivo, Acinetobacter baumannii; conditions: same conditions (20mg/kg)
[4] = In vivo nephrotoxicity, kidney histopathology and urinary biomarkers; design: species or system male CD-1 mice
K.pneumoniae IHMA652780 = experiment: MIC by broth microdilution; format: cell-based, Klebsiella pneumoniae; conditions: compound alone; reduced susceptibility to polymyxins
[5] = Plasma exposure in the renal toxicity study; format: in vivo; conditions: mouse, 25 mg/kg dose level

Compound | MIC K.pneumoniae IHMA520329 (K.pneumoniae IHMA520329) | MIC P.aeruginosa IHMA517175 (P.aeruginosa IHMA517175) | MIC K.pneumonia ATCC 13882 (K.pneumonia ATCC 13882) | MIC E.coli ATCC 25922 (E.coli ATCC 25922) | MIC A.baumannii BAA-747 (A.baumannii BAA-747) | MIC E. coli IHMA558090 (E. coli IHMA558090) | MIC P.aeruginosa IHMA644636 (P.aeruginosa IHMA644636) | MIC K. pneumoniae IHMA580884 (K. pneumoniae IHMA580884) | MIC A.baumannii IHMA 517303 (A.baumannii IHMA 517303) | MIC E.coli IHMA940398 (E.coli IHMA940398) | MIC A.baumannii NCTC 13301 (A.baumannii NCTC 13301) | MIC P.aeruginosa ATCC 27853 (P.aeruginosa ATCC 27853) | other results
CC(C)C[C@@H]1NC(=O)[C@@H](Cc2ccccc2)NC(=O)[C@H](CCN)NC(=O)[C@@H](NC(=O)[C@H](CN)NC(=O)[C@@H](NC(=O)C[C@H](CN)c2cccc(Cl)c2)[C@@H](C)O)CCNC(=O)[C@H]([C@@H](C)O)NC(=O)[C@H](CCN)NC(=O)[C@H](CCN)NC1=O [Compound 26, SPR206] (X2-T[Dap][Dab][Dab][dF]L[Dab][Dab]T; lactam 3-C (inferred)) | 64 µg/mL (≈ 55.9 µM) | 8 µg/mL (≈ 6.99 µM) | 0.125 µg/mL (≈ 0.109 µM) | 0.125 µg/mL (≈ 0.109 µM) | 0.125 µg/mL (≈ 0.109 µM) | 8 µg/mL (≈ 6.99 µM) | 32 µg/mL (≈ 28 µM) | 16 µg/mL (≈ 14 µM) | >64 µg/mL | 32 µg/mL (≈ 28 µM) | 0.06 µg/mL (≈ 0.0524 µM) | 0.25 µg/mL (≈ 0.218 µM) | renal toxicity compared to PMB [1]: significantly reduced renal toxicity compared to PMB; AUC in renal tissue [2]: 850 µg·h/g; renal toxicity compared to PMB [3]: significantly reduced renal toxicity compared to PMB
Colistin [2 (Colistin)] | >64 µg/mL | 64 µg/mL | 0.25 µg/mL | 0.25 µg/mL | 0.25 µg/mL | 4 µg/mL | 32 µg/mL | 16 µg/mL | >64 µg/mL | 16 µg/mL | 0.5 µg/mL | 1 µg/mL | 
Polymyxin B [1 (PMB)] | 64 µg/mL | 8 µg/mL | 0.25 µg/mL | 0.25 µg/mL | 0.25 µg/mL | 4 µg/mL | 32 µg/mL | 8 µg/mL | >64 µg/mL | 16 µg/mL | 0.25 µg/mL | 0.5 µg/mL | MIC A.baumannii IHMA 851735 (A.baumannii IHMA 851735): 4 µg/mL; drop in colony forming units (CFU) from the pre-treatment level (A. baumannii NCTC13301): greater than 2 log10; Histopathology score – number of animals Normal ([4]; 12.5 mg/kg, 24hr, n = 5): 5; Histopathology score – number of animals Minimal ([4]; 12.5 mg/kg, 4 days, n = 5): 1; Histopathology score – number of animals Normal ([4]; 12.5 mg/kg, 4 days, n = 5): 4; Histopathology score – number of animals Mild ([4]; 25 mg/kg, 24hr, n = 5): 2; Histopathology score – number of animals Minimal ([4]; 25 mg/kg, 24hr, n = 5): 2; Histopathology score – number of animals Moderate ([4]; 25 mg/kg, 24hr, n = 5): 1 ^*; Histopathology score – number of animals Minimal ([4]; 25 mg/kg, 4 days, n = 5): 2; kidney histopathology ([4]; mouse, 25 mg/kg sc three times per day, 24 hr and 4 day studies): significant histopathology changes in the kidneys; MIC A.baumannii NCTC 13301 (A.baumannii NCTC 13301; listed as PMB): 0.25 µg/mL; MIC K.pneumoniae IHMA652780 (K.pneumoniae IHMA652780): 4 µg/mL; plasma AUCinf [5]: 57000 ng·h/mL
